According to PubChem BioAssay (NCI):
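Compound exposure: 48 hours, 5 concentrations, 96-well plates. GI50: concentration for 50% inhibition of growth. The concentration for full growth arrest is given as TGI.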 The source made the active and inactive calls. Rule as the data show it: active = GI50 below about 0.43 µM; inactive = the rest.

How the values were obtained:
Assay in all cases: NCI anticancer screen, dose series, 48 h
786-0 renal = test system: 786-0 renal
A498 renal = test system: A498 renal
A549 NSCLC = test system: A549 NSCLC
ACHN renal = test system: ACHN renal
CCRF-CEM leukemia = test system: CCRF-CEM leukemia
COLO 205 colon = test system: COLO 205 colon
DU-145 prostate = test system: DU-145 prostate
EKVX NSCLC = test system: EKVX NSCLC
HCT-116 colon = test system: HCT-116 colon
HCT-15 colon = test system: HCT-15 colon
HL-60(TB) leukemia = test system: HL-60(TB) leukemia
HOP-62 NSCLC = test system: HOP-62 NSCLC
HOP-92 NSCLC = test system: HOP-92 NSCLC
HS 578T breast = test system: HS 578T breast
HT29 colon = test system: HT29 colon
IGROV1 ovarian = test system: IGROV1 ovarian
K-562 leukemia = test system: K-562 leukemia
KM12 colon = test system: KM12 colon
LOX IMVI melanoma = test system: LOX IMVI melanoma
M14 melanoma = test system: M14 melanoma
MALME-3M melanoma = test system: MALME-3M melanoma
MCF7 breast = test system: MCF7 breast
MDA-MB-231 breast = test system: MDA-MB-231 breast
MDA-MB-435 = test system: MDA-MB-435
MDA-N = test system: MDA-N
MOLT-4 leukemia = test system: MOLT-4 leukemia
NCI-H226 lung = test system: NCI-H226 lung
NCI-H23 lung = test system: NCI-H23 lung
NCI-H460 lung = test system: NCI-H460 lung
NCI-H522 lung = test system: NCI-H522 lung
NCI/ADR-RES ovarian = test system: NCI/ADR-RES ovarian
OVCAR-4 ovarian = test system: OVCAR-4 ovarian
OVCAR-5 ovarian = test system: OVCAR-5 ovarian
OVCAR-8 ovarian = test system: OVCAR-8 ovarian
PC-3 prostate = test system: PC-3 prostate
RXF 393 renal = test system: RXF 393 renal
SF-268 CNS = test system: SF-268 CNS
SF-295 CNS = test system: SF-295 CNS
SF-539 CNS = test system: SF-539 CNS
SK-MEL-2 melanoma = test system: SK-MEL-2 melanoma
SK-MEL-28 melanoma = test system: SK-MEL-28 melanoma
SK-MEL-5 melanoma = test system: SK-MEL-5 melanoma
SK-OV-3 ovarian = test system: SK-OV-3 ovarian
SN12C renal = test system: SN12C renal
SNB-19 CNS = test system: SNB-19 CNS
SNB-75 CNS = test system: SNB-75 CNS
SW-620 colon = test system: SW-620 colon
T-47D breast = test system: T-47D breast
TK-10 renal = test system: TK-10 renal
U251 CNS = test system: U251 CNS
UACC-257 melanoma = test system: UACC-257 melanoma
UACC-62 melanoma = test system: UACC-62 melanoma
UO-31 renal = test system: UO-31 renal

**Q.** What does the source list for `O=C(O)CN1CCN(CC(=O)O)CCN(CC(=O)O)CC1`?
**A.** outcome (786-0 renal): inactive; TGI (A498 renal): > 0.0758 mM; outcome (A498 renal): inactive; GI50 (A549 NSCLC): 3.55 mM; TGI (A549 NSCLC): > 0.0254 mM; outcome (ACHN renal): inactive; TGI (CCRF-CEM leukemia): > 0.059 mM; outcome (CCRF-CEM leukemia): inactive; GI50 (COLO 205 colon): 4.77 mM; TGI (COLO 205 colon): 0.00969 mM; outcome (DU-145 prostate): inactive; outcome (EKVX NSCLC): inactive; GI50 (HCT-116 colon): 6.75 mM; GI50 (HCT-15 colon): 9.44 mM; TGI (HL-60(TB) leukemia): 0.00474 mM; outcome (HOP-62 NSCLC): inactive; outcome (HOP-92 NSCLC): inactive; outcome (HS 578T breast): inactive; GI50 (HT29 colon): 4.4 mM; GI50 (IGROV1 ovarian): 7.1 mM; TGI (K-562 leukemia): > 0.0219 mM; GI50 (KM12 colon): 5.45 mM; outcome (LOX IMVI melanoma): inactive; GI50 (M14 melanoma): 10.5 mM; outcome (MALME-3M melanoma): inactive; GI50 (MCF7 breast): 6.36 mM; outcome (MDA-MB-231 breast): inactive; outcome (MDA-MB-435): inactive; GI50 (MDA-N): 18.5 mM; outcome (MOLT-4 leukemia): inactive; outcome (NCI-H226 lung): inactive; GI50 (NCI-H23 lung): 76.1 mM; GI50 (NCI-H460 lung): 4.56 mM; GI50 (NCI-H522 lung): 8.06 mM; TGI (NCI-H522 lung): > 0.0708 mM; TGI (NCI/ADR-RES ovarian): > 0.0309 mM; outcome (NCI/ADR-RES ovarian): inactive; outcome (OVCAR-4 ovarian): inactive; outcome (OVCAR-5 ovarian): inactive; GI50 (OVCAR-8 ovarian): 22.3 mM; TGI (OVCAR-8 ovarian): > 0.0241 mM; GI50 (PC-3 prostate): 9.04 mM; GI50 (RXF 393 renal): 9.94 mM; outcome (SF-268 CNS): inactive; outcome (SF-295 CNS): inactive; outcome (SF-539 CNS): inactive; GI50 (SK-MEL-2 melanoma): 16.7 mM; outcome (SK-MEL-28 melanoma): inactive; GI50 (SK-MEL-5 melanoma): 6.79 mM; TGI (SK-MEL-5 melanoma): > 0.0232 mM; outcome (SK-OV-3 ovarian): inactive; outcome (SN12C renal): inactive; outcome (SNB-19 CNS): inactive; outcome (SNB-75 CNS): inactive; outcome (SW-620 colon): inactive; outcome (T-47D breast): inactive; GI50 (TK-10 renal): 33.1 mM; outcome (U251 CNS): inactive; GI50 (UACC-257 melanoma): 71.5 mM; GI50 (UACC-62 melanoma): 8.7 mM; outcome (UO-31 renal): inactive
